# Values quoted from earlier work as cited in PMC9240354, “Pharmacokinetics, Pharmacodynamics and Antiviral Efficacy of the MEK Inhibitor Zapnometinib in Animal Models and in Humans” (Frontiers in Pharmacology, 2022).
# Columns and labels:
# MEK = test system: MEK; parameters: method as in Yang et al., 2010; conditions: single application, LOX melanoma tumor xenograft model; ref Yang et al., 2010; cited from earlier work
# ERK phosphorylation = test system: ERK phosphorylation; parameters: method as in Gilmartin et al., 2011; conditions: mouse tumor xenograft model; ref Gilmartin et al., 2011; cited from earlier work
SMILES,MEK inhibition with decreasing plasma concentration (MEK),inhibition of ERK phosphorylation in vivo (ERK phosphorylation)
CCCS(=O)(=O)Nc1ccc(F)c(C(=O)c2c[nH]c3ncc(-c4ccc(Cl)cc4)cc23)c1F [RG7204],remained at a relatively constant value up to 8 h post dose,
CC(=O)Nc1cccc(-n2c(=O)n(C3CC3)c(=O)c3c(Nc4ccc(I)cc4F)n(C)c(=O)c(C)c32)c1 [trametinib],,sustained inhibition of ERK phosphorylation
